Test results published in publication PMC9933715 (Antimicrobial Agents and Chemotherapy, 2023).
pEC50: −log10 of the molar value.

Assays:
[1] = tested on: ZIKV-R2A (strain FSS13025); experiment: microbe, parasite or virus in culture; format: cell-based; conditions: Zika virus, Huh7.5, 48 h, read-out: ZIKV-R2A replication (fold DMSO) Mean
[2] = tested on: Huh7.5 cells; experiment: Cell viability, CellTiter-Glo luminescent assay; conditions: deconvolution screen, singletons, 50 µM, uninfected Huh7.5
[3] = tested on: DENV-R2A (Rluc-expressing DENV, serotype 2 strain 16681); experiment: microbe, parasite or virus in culture; format: cell-based, Dengue virus; conditions: Dengue virus, Huh7.5, 48 h, read-out: DENV-R2A replication (fold DMSO) Mean, deconvolution screen, singletons, 50 µM, Huh7.5, 2 days postinfection
[4] = tested on: DENV-R2A (Rluc-expressing DENV, serotype 2 strain 16681); conditions: same experimental set-up; cited from earlier work
[5] = tested on: ZIKV-R2A (strain FSS13025); conditions: same experimental set-up; cited from earlier work
[6] = tested on: Huh7.5 cells; set-up: method as in PMID 34152811; conditions: same experimental set-up; cited from earlier work

| SMILES | activity at 50 µM [1] | Cell viability (fold DMSO) Mean [2] | activity at 50 µM [3] | pEC50 [4] | pEC50 [5] | CC50 [6] |
| --- | --- | --- | --- | --- | --- | --- |
| Nc1cncnc1 [SS-6051, Nc1cncnc1] | 105% | 0.96 fold DMSO | 104% |  |  |  |
| Cc1ccc(N2CCNC2=O)c(C)c1 [FA-0890, Cc1ccc(N2CCNC2=O)c(C)c1] | 112% | 1.08 fold DMSO | 99% |  |  |  |
| Fc1cc(F)cc(-c2ccno2)c1 [PS-6845, Fc1cc(F)cc(c1)c2oncc2] | 111% | 1.15 fold DMSO | 100% |  |  |  |
| Cc1onc(-c2ccccc2)c1C#N [Compound 10B-058, Cc1onc(c2ccccc2)c1C#N] | 106% | 0.98 fold DMSO | 102% |  |  |  |
| Cc1cnn2c(C3CC3)ccnc12 [Compound 7T-0305, Cc1cnn2c(ccnc12)C3CC3] | 111% | 1.06 fold DMSO | 108% |  |  |  |
| Cc1cc(O)cc(C)c1CO [DK-0713, Cc1cc(O)cc(C)c1CO] | 93% | 1.04 fold DMSO | 96% |  |  |  |
| CC(C)(C)OC(=O)N1CCCCn2nc(CO)cc2C1 [Compound 10X-0603, CC(C)(C)OC(=O)N1CCCCn2nc(CO)cc2C1] | 104% | 1.07 fold DMSO | 106% |  |  |  |
| COc1cc2c(cc1O)CN(C)C[C@H]2c1ccc(O)cc1 [cherylline] |  |  |  | 5.06 | 4.69 | > 250 µM |
| CCCC(=O)c1cccs1 [FS-1782, CCCC(=O)c1cccs1] | 104% | 1.02 fold DMSO | 104% |  |  |  |
| OCc1cc2cc(Br)ccc2[nH]1 [GA-0936, OCc1cc2cc(Br)ccc2[nH]1] | 63% | 0.83 fold DMSO | 13% |  |  |  |
| Cc1ccc(C2CNCCN2)cc1 (stereo not drawn) [FS-3294, Cc1ccc(cc1)C2CNCCN2] | 96% | 1.08 fold DMSO | 74% |  |  |  |
| O=C(O)[C@@H](O)c1ccc(Br)cc1 [SS-4660, O[C@H](C(=O)O)c1ccc(Br)cc1] | 102% | 1.10 fold DMSO | 104% |  |  |  |
| CN(C)C(=O)c1ccccc1Br [PS-4942, CN(C)C(=O)c1ccccc1Br] | 112% | 1.07 fold DMSO | 107% |  |  |  |
| Oc1ccc2[nH]ccc2c1 [PS-3277, Oc1ccc2[nH]ccc2c1] | 74% | 1.23 fold DMSO | 52% |  |  |  |
| Cc1cccc(N2CCNCC2)n1 [FS-1568, Cc1cccc(n1)N2CCNCC2] | 102% | 1.22 fold DMSO | 91% |  |  |  |
| Cc1cc(O)cc(O)n1 [PS-3153, Cc1cc(O)cc(O)n1] | 109% | 0.97 fold DMSO | 100% |  |  |  |
| Cc1ncccc1C(=O)O [PS-5559, Cc1ncccc1C(=O)O] | 104% | 0.92 fold DMSO | 102% |  |  |  |
| Cc1ccc(Br)c(N)c1 [PS-5668, Cc1ccc(Br)c(N)c1] | 101% | 1.16 fold DMSO | 102% |  |  |  |
| Oc1ccc2ncccc2c1 [PS-3719, Oc1ccc2ncccc2c1] | 107% | 1.19 fold DMSO | 93% |  |  |  |
